Legend:
[1] = system: elastase (lasB; PA3724); details: cited from earlier work
[2] = system: LasR-controlled GFP expression in P. aeruginosa PAO1 lasB-gfp(ASV) strain; assay: P. aeruginosa QS inhibition assay with lasB-gfp(ASV) reporter strain; type: cell-based, Pseudomonas aeruginosa; details: for effect on cell growth / inhibition of LasR-controlled GFP expression: P. aeruginosa lasB-gfp(ASV) strain; for effect on cell growth: OD600; for inhibition of LasR-controlled GFP expression: 0.78125-50 μM
Protocol: P. aeruginosa QS inhibition assays. Test compounds were dissolved in 100% DMSO and mixed with ABTGC media, after which they were added to the first column of wells of a 96-well microtitre plate (Nunc) to give a final concentration of 100 μM in a final volume of 200 μl. 100 μL of ABTGC media was then added to the remaining wells in the plate and serial two-fold dilutions of the inhibitors were done by adding 100 μL of the preceding inhibitor-containing well to the subsequent one. The final column was left without inhibitor as a control. Next, an overnight culture of P. aeruginosa lasB-gfp(ASV) strain, grown in LB medium at 37° C. with shaking, was diluted to an optical density (OD) at 600 nm of 0.2, and 100 μl of bacterial suspension was added to each well of the microtitre plate. […] The microtitre plate was incubated at 37° C. in a Tecan Infinite 200 Pro plate reader (Tecan Group Ltd., Männedorf, Switzerland). GFP fluorescence (excitation at 485 nm, emission at 535 nm) and cell density (OD600) measurements were collected at 15 min intervals for at least 14 h. The P. aeruginosa Rhl and Pqs inhibition assays were performed in a similar manner to the LasR inhibition assay.
Inhibition Assay with the P. aeruginosa lasB-gfp(ASV) strain. In the preliminary screen, the 22 selected QSI candidates were screened for their ability to inhibit QS-controlled green fluorescent protein (GFP) expression in the P. aeruginosa lasB-gfp(ASV) strain. Elastase (encoded by the lasB gene) is a virulence factor that is controlled by LasR and therefore a good indicator for LasR activity. […] For ease of identification, each compound was designated a short compound identification code based on its well position in the shipment in place of its standard IUPAC name.
The dose-response curves of these 5 QSI candidates when incubated with the P. aeruginosa PAO1 lasB-gfp(ASV) strain are shown in FIG. 3. GFP expression, which was measured in relative fluorescence units, was normalized by dividing the GFP value by the corresponding OD600 value measured at that time-point. ‘Control’ refers to the PAO1 strain grown without the presence of QSI, and as expected, it had the highest GFP per OD values. For these five compounds, dose-dependent inhibition of lasB-gfp expression was observed, i.e. the higher the concentration of QSI that was present, the greater the inhibition of gfp expression.
IC50 Value Comparisons of the Five QSI Candidates. The slope of the curve for each QSI was calculated based on its respective dose-response curves (from FIG. 3) and plotted against the log inhibitor concentration. The slope is indicative of the biosynthesis rate of GFP due to AHL induction. The half maximal inhibitory concentrations (IC50) of the five QSI candidates were calculated using the Graphpad Prism 6 software package (GraphPad Software Inc., CA, USA).

[3] = system: rhlA-gfp(ASV) expression; assay: Inhibition of the Rhl QS system, rhlA-gfp(ASV) reporter in PAO1 wild-type and lasR mutant; type: cell-based, P. aeruginosa
Protocol: (§1) Inhibition of the Rhl and PQS QS systems in wild-type PAO1 and PAO1 lasR mutant. Wild-type P. aeruginosa PAO1 strains harboring either the rhlA-gfp(ASV) reporter or the pqsA-gfp(ASV) reporter, and a P. aeruginosa PAO1 lasR mutant harboring either the rhlA-gfp(ASV) reporter or the pqsA-gfp(ASV) reporter were used for this experiment (Refer to FIG. 11 for strain information). Overnight cultures of these four strains were diluted 100-fold in ABTGC media within 96-well microtitre plates to a final volume of 200 μL per well. Each of the five QSIs was added in triplicate to a final concentration of 50 μM. 0.5% DMSO was used as a negative control. The microtitre plate was incubated at 37° C. in a Tecan Infinite 200 Pro plate reader where GFP and OD600 readings were measured at 15 min intervals.
(§2) Effect of QSIs on Rhl and Pqs Quorum-Sensing Systems. In order to address the problem of the specificity of present compounds, the five identified QSI compounds were tested to see if they had any effect on the rhl and pqs systems. The five QSIs were tested against a PAO1 wild-type and a PAO1 lasR mutant harboring either the rhlA-gfp (ASV) bioreporter or the pqsA-gfp (ASV) bioreporter. The rhlA system is dependent on the RhlR/I system. By doing so, we were able to determine if a QSI is able to inhibit the other two QS systems (i.e. rhl and pqs) in a lasR-dependent/independent manner (FIG. 8).

[4] = system: pqsA-gfp(ASV) expression; assay: Inhibition of the PQS QS system, pqsA-gfp(ASV) reporter in PAO1 wild-type and lasR mutant; type: cell-based, P. aeruginosa
Protocol: as §1, §2

[5] = system: protease IV; details: cited from earlier work

Structure (SMILES) | reduction of expression of elastase [1] [fold] | effect on cell growth [2] | inhibition of LasR-controlled GFP expression [2] | further results
O=C1C=C2C(=CCOC2O)O1 (stereo not drawn) [patulin] | −7 |  |  | 
C=C(C)C(=O)C(=CC(=O)O)OC [penicillic acid] | −12 |  |  | 
O=c1[nH]cnc2[nH]nnc12 [Compound C1, 6-hydro-3H-1,2,3-triazolo[5,4-d]pyrimidin-7-one] |  | without affecting cell growth | inhibit LasR-controlled GFP expression in a dose-dependent manner | IC50 of lasB-gfp expression, range in words ([2]; P. aeruginosa PAO1 lasB-gfp(ASV)): high nanomolar range
NC(Cc1cccc(F)c1)C(=O)O (racemic) [Compound F1, 2-amino-3-(3-fluorophenyl)propanoic acid] |  | without affecting cell growth | inhibit LasR-controlled GFP expression in a dose-dependent manner | inhibition of rhlA-gfp expression ([3]; PAO1 lasR mutant, 50 μM QSI): 63.1%; inhibition of rhlA-gfp expression ([3]; wild-type PAO1, 50 μM QSI): 61.7%; inhibition of pqsA-gfp expression ([4]; PAO1 lasR mutant, 50 μM QSI): 39.4%; inhibition of pqsA-gfp expression ([4]; wild-type PAO1, 50 μM QSI): 25.4%
O=[N+]([O-])c1cc[n+]([O-])cc1 [Compound 4-NPO, 4-nitropyridine-N-oxide] | −22.6 |  |  | reduction of expression of protease IV [5]: −20.7 fold
NC(C(=O)O)C(O)c1ccccc1 (racemic) [Compound H1, 2-amino-3-hydroxy-3-phenylpropanoic acid] |  | without affecting cell growth | inhibit LasR-controlled GFP expression in a dose-dependent manner | 

Reference: patent US9988380B2, “Quorum sensing inhibitors” (priority 2013, dated 2018)
